Test results: patent EP0089860A1, “Levogyrous isomer of mequitazine, process for its preparation and pharmaceutical preparations containing it” (priority 1982, dated 1983)

Tested on: souris
Test: Acute toxicity in the mouse
Format: in vivo
Details: comparison of composé (Ia) and Méquitazine

Compound | toxicité aiguë
c1ccc2c(c1)Sc1ccccc1N2CC1CN2CCC1CC2 (racemic) [Méquitazine racémique, [(aza-1 bicyclo(2,2,2)octyl-3)méthyl]-10 10H-phénothiazine] | sensiblement identiques
c1ccc2c(c1)Sc1ccccc1N2C[C@@H]1CN2CCC1CC2 [Composé (Ia), [(aza-1 bicyclo(2,2,2)octyl-3 (S))méthyl]-10 10H-phénothiazine] | sensiblement identiques
